We go through one molecule from US20260000794A1, “IN VIVO TRANSITION METAL DETECTION” (The University of Sydney, priority 2022, published 2026).

Entries after “also recorded” stand apart in the source; their conditions may differ.

One data set concerns SH-SY5Y cells. The experiment in a line: Confocal microscopy of F—NpCul fluorescence in cells with copper loading or depletion (FIG. 4). The data set is classed as cell-based, human. The method, then:
SH-SY5Y cells were used, which are a human neuron-like cell line. SH-SY5Y cells were maintained at 37° C. in 5% CO2. Cells were cultured in Dulbecco's Modified Eagle's Medium (DMEM, Thermo Fisher Scientific) supplemented with 10% foetal calf serum (FCS, Thermo Fisher Scientific) and 2.5 mM L-glutamine (Sigma-Aldrich). Fluorobrite DMEM (FDMEM, Thermo Fisher Scientific) was supplemented with 10% FCS and 2.5 mM L-glutamine, unless otherwise stated.
For all imaging experiments, 1.5×10^5 cells were seeded into 35 mm glass bottom dishes (MatTek) and allowed to adhere overnight. 10 mM stock solutions of F—NpCul CuATSM were freshly prepared in DMSO. A 10 mM stock solution of BCS was freshly prepared in MilliQ water. For experiments cells were dosed with nothing (vehicle), 1 μL of 10 mM CuATSM stock in 1 mL DMEM or 10 μL of 10 mM BCS solution in 1 mL DMEM. […]
Images were obtained at 37° C. in a 5% CO2 atmosphere on an Olympus Fluo View FV3000 Confocal Laser Scanning Microscope, equipped with an Olympus 60× water objective (UPLSAPO60XW) and 405 and 640 nm lasers, unless otherwise stated. All samples were excited at 405 nm, and fluorescence emission collected from 510-610 nm. […] Data is presented as the mean fluorescence intensities of 40-50 cell clusters chosen as regions of interest from 10 images representative of each condition.

The next data set relates to SWISS mice. The experiment in a line: DIVE microscopy of fluorescent emission in CuATSM-treated vs untreated mice after F—NpCul injection (FIG. 5, FIG. 6). The format is in vivo, mouse. As to conditions: 4 mg/kg F—NpCul i.v. tail vein, CuATSM 15 mg/kg orally daily for eight days. How it is done:
(§1) In this work, anaesthetised SWISS mice underwent a craniotomy surgery to expose a region of parietal cortex. Imaging was performed through this cranial window with a water dipping objective lens. 4 mg/kg F—NpCul was i.v. injected through the tail vein after three minutes. F—NpCul was excited at 920 nm and emission was 504-577nm. “Treated” mice (n=3) were orally administered the copper-delivery compound CuATSM (15 mg/kg) daily for eight days to increase brain copper levels prior to imaging while control mice (n=3, “Untreated”) received no treatment. For each mouse at all time points, fluorescent emission per unit area (arbitrary units) from five representative regions of interest (ROIs) within vasculature and five ROIs in surrounding tissue was quantified from a projected image combining 130 μm depth. Baseline fluorescence from an image acquired prior to probe injection was subtracted from all fluorescent measurements which were then averaged at each time point. Comparison of average fluorescent emission intensity between control and CuATSM-treated mice was undertaken for a) brain tissue and b) vasculature. Unpaired t-tests with significance p<0.05 were performed to describe the temporal pattern of change. Error bars show mean ±SEM.
(§2) Anaesthetised SWISS mice underwent a craniotomy surgery to create a cranial window exposing parietal cortex. […]

The next data set concerns mice. The experiment in a line: Observation of signs of toxicity in the in vivo studies. More on the design: species or system mouse. As to conditions: in vivo imaging studies, 4 mg/kg F—NpCul. The method, then: as §1, §2

For `CCSCCN(CCSCC)Cc1cn(C(=O)OCCOCCNc2ccc3c4c(cccc24)C(=O)N(CCF)C3=O)cn1` [F—NpCul], in the data set on SH-SY5Y cells (10 μM F—NpCul, cells treated with vehicle, 10 μM CuATSM (copper-loading) or 100 μM BCS (copper-depleting) for 1 h, P<0.001 v vehicle), the “mean fluorescence intensity response to copper status” value was “sensitive to both an accumulation and a deficiency of copper”. In the data set on SH-SY5Y cells (preliminary results), the “bioavailability and cell uptake, reporting intracellular Cu(I) levels” value is “bioavailable and can be taken up by cells to report intracellular Cu(I) levels”. Further, the “reported copper levels within the vasculature, treated vs untreated mice” value in the data set on SWISS mice is given as “equivalent”. Also, the “fluorescent signal in brain tissue, CuATSM-treated vs untreated mice” value with SWISS mice (parietal cortex, excitation 920 nm, emission 504-577 nm) is “significantly higher; also recorded: Higher fluorescent signal is observed in CuATSM-treated mice compared to control”. For the same molecule, in the data set on mice, the “signs of toxicity following F—NpCul exposure” value was “no signs of toxicity”.
